From PMC7180948, “New Insights into 4-Anilinoquinazolines as Inhibitors of Cardiac Troponin I–Interacting Kinase (TNNi3K)” (Molecules, 2020)

Columns and labels:
Experiment in all cases: biochemical
Set-up in all cases: KINOMEscan competition binding panel (Eurofins DiscoverX), single concentration, percent inhibition
Details in all cases: read-out: 15 at 1 µM % inhibition
AAK1 = AAK1 (Homo sapiens, UniProt Q2M2I8)
In short: (§1)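 KINOMEscan selectivity screen; >400 human kinases; compound at 1 µM, single concentration.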

TGFBR1 = TGFBR1 (Homo sapiens, UniProt P36897)
In short: as §1

[1] = molecular target: T1, RSK4(Kin.Dom.1-N-terminal) (Homo sapiens, UniProt Q9UK32)
T1 construct: gene RPS6KA6; Kin.Dom.1-N-terminal
In short: as §1

KIT(V559D,T670I) = KIT(V559D,T670I) (Homo sapiens, UniProt P10721, T670I/V559D)
KIT(V559D,T670I), sequence (P10721 whole entry V559D/T670I): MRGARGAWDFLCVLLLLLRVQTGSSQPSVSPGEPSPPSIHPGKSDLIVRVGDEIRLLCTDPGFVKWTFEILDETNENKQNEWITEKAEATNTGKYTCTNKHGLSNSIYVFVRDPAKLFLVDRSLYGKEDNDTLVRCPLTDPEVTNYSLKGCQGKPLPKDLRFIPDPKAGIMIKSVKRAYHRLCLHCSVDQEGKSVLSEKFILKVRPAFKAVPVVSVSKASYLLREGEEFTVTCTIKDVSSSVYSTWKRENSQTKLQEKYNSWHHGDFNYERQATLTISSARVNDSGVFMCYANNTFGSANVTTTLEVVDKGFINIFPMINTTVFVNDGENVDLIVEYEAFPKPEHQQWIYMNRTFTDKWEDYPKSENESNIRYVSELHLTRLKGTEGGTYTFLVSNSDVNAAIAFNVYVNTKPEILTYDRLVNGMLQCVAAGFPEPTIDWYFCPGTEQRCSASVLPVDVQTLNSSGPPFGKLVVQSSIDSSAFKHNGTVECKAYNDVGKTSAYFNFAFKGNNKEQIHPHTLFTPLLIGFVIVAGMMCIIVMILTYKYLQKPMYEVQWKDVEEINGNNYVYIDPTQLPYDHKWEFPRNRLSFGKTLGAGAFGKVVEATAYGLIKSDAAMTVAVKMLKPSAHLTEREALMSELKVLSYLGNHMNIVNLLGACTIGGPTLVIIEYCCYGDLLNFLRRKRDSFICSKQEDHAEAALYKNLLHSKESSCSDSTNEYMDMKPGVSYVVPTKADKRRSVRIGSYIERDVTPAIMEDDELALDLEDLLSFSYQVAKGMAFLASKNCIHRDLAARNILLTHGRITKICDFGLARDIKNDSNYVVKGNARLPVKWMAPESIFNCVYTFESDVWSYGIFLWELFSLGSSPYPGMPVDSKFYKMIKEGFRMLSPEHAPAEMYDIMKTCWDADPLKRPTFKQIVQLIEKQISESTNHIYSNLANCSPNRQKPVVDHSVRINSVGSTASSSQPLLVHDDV
In short: as §1

MERTK = MERTK (Homo sapiens, UniProt Q12866)
MERTK, sequence (Q12866 whole entry): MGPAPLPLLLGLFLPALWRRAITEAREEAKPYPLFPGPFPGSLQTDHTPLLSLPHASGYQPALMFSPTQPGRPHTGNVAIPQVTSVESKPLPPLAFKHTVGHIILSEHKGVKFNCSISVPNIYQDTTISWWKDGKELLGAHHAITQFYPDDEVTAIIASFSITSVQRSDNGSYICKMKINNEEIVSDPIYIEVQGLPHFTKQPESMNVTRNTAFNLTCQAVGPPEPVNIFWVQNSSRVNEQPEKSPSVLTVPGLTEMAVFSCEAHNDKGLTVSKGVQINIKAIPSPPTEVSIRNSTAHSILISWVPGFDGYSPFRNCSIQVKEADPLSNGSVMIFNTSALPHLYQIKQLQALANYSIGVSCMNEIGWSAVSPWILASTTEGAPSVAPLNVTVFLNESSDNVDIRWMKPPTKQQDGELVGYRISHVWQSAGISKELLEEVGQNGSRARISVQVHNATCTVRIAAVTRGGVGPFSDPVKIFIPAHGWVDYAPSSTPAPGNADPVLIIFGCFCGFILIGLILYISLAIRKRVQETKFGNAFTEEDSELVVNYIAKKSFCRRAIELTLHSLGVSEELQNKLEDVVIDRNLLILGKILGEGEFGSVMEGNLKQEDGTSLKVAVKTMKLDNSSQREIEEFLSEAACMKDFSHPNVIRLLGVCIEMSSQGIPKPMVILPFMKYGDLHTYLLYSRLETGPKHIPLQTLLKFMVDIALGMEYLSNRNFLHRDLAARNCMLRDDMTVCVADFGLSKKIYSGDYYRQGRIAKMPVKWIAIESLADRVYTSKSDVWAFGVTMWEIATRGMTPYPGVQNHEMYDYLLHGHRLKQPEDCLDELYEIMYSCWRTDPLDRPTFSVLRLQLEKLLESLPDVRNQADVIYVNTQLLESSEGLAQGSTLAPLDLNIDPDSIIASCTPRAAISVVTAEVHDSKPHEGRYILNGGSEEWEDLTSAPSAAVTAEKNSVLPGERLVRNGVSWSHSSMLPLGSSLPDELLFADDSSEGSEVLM
In short: as §1

SRPK1 = SRPK1 (Homo sapiens, UniProt Q96SB4)
In short: as §1

CDKL3 = CDKL3 (Homo sapiens, UniProt Q8IVW4)
In short: as §1

EPHB1 = EPHB1 (Homo sapiens, UniProt P54762)
In short: as §1

ROCK2 = ROCK2 (Homo sapiens, UniProt O75116)
In short: as §1

GSK3A = GSK3A (Homo sapiens, UniProt P49840)
GSK3A, sequence (P49840 whole entry): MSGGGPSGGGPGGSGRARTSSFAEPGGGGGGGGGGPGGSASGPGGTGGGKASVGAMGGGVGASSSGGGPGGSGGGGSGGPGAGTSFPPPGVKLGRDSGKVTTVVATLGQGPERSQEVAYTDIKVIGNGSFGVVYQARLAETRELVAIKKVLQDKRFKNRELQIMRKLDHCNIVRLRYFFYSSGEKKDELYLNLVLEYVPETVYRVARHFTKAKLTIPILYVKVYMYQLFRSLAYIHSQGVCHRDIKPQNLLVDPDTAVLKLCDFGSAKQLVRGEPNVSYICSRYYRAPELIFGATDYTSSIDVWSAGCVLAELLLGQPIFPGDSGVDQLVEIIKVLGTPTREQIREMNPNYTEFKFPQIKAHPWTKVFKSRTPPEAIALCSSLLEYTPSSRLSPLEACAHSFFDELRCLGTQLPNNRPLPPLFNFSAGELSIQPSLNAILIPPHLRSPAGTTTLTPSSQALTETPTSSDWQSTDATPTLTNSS
In short: as §1

FGFR3(G697C) = FGFR3(G697C) (Homo sapiens, UniProt P22607, G697C)
In short: as §1

PYK2 = molecular target: T2, PYK2 (Homo sapiens, UniProt Q14289)
T2 construct: gene PTK2B
In short: as §1

[2] = molecular target: T3, ABL1(Y253F)-phosphorylated (Homo sapiens, UniProt P00519, Y253F)
T3 construct: phosphorylated
In short: as §1

STK35 = STK35 (Homo sapiens, UniProt Q8TDR2)
In short: as §1

ACVR2B = ACVR2B (Homo sapiens, UniProt Q13705)
In short: as §1

[3] = molecular target: T4, JAK2(JH1domain-catalytic) (Homo sapiens, UniProt O60674)
T4 construct: JH1domain-catalytic
T4 sequence (O60674 whole entry): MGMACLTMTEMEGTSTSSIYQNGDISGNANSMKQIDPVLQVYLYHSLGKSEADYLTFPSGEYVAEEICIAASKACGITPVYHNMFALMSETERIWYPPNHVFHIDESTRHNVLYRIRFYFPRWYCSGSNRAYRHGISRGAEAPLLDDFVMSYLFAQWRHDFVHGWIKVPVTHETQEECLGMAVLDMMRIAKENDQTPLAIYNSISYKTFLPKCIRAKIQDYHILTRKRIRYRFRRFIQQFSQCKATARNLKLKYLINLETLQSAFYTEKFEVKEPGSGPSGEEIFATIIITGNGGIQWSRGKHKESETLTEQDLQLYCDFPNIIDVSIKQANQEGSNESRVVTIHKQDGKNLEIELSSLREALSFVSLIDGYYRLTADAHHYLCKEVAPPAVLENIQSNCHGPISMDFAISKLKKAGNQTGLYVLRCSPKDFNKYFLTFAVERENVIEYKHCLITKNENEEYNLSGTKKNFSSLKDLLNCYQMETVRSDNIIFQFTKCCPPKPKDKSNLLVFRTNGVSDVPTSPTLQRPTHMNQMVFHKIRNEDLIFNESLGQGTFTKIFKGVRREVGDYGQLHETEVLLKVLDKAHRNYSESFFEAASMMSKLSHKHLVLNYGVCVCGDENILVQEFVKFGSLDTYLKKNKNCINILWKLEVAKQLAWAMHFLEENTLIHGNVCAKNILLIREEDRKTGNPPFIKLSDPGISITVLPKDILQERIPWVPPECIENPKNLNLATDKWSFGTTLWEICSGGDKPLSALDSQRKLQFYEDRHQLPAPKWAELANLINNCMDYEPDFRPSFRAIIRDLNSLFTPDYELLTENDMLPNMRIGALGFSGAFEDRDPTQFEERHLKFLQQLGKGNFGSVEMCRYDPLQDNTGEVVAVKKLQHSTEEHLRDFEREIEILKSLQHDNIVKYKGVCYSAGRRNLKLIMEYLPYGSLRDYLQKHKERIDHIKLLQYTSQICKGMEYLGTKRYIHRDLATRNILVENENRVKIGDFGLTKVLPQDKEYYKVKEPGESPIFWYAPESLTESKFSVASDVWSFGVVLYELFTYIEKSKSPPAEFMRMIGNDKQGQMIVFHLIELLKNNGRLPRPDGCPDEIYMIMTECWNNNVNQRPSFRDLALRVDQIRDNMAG
In short: as §1

CSNK2A2 = CSNK2A2 (Homo sapiens, UniProt P19784)
In short: as §1

[4] = molecular target: T5, RSK2(Kin.Dom.1-N-terminal) (Homo sapiens, UniProt P51812)
T5 construct: gene RPS6KA3; Kin.Dom.1-N-terminal
In short: as §1

PIK3CA(I800L) = PIK3CA(I800L) (Homo sapiens, UniProt P42336, I800L)
In short: as §1

CAMK2D = CAMK2D (Homo sapiens, UniProt Q13557)
In short: as §1

CAMK1 = CAMK1 (Homo sapiens, UniProt Q14012)
In short: as §1

RIPK4 = RIPK4 (Homo sapiens, UniProt P57078)
RIPK4, sequence (P57078 whole entry): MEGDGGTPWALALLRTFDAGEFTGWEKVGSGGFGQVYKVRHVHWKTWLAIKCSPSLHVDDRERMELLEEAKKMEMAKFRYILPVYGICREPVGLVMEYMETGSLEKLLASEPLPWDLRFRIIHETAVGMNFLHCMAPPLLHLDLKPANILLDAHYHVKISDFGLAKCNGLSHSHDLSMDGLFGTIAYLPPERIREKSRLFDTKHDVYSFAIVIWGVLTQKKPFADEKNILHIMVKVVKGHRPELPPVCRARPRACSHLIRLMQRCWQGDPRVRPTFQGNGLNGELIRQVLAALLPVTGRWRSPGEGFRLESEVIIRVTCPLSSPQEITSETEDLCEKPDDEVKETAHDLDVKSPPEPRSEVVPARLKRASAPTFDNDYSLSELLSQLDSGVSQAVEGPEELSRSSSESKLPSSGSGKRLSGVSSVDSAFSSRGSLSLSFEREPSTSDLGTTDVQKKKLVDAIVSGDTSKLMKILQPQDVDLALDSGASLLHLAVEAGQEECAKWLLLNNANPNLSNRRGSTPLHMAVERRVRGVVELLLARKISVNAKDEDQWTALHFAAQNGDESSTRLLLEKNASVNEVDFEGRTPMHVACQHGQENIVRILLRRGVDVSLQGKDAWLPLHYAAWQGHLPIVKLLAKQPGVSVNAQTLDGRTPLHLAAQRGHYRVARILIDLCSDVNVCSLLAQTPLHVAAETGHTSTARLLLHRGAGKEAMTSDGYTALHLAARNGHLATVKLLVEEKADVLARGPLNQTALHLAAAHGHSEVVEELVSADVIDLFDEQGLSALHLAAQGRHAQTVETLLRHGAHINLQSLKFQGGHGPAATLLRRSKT
In short: as §1

PRKCH = PRKCH (Homo sapiens, UniProt P24723)
PRKCH, sequence (P24723 whole entry): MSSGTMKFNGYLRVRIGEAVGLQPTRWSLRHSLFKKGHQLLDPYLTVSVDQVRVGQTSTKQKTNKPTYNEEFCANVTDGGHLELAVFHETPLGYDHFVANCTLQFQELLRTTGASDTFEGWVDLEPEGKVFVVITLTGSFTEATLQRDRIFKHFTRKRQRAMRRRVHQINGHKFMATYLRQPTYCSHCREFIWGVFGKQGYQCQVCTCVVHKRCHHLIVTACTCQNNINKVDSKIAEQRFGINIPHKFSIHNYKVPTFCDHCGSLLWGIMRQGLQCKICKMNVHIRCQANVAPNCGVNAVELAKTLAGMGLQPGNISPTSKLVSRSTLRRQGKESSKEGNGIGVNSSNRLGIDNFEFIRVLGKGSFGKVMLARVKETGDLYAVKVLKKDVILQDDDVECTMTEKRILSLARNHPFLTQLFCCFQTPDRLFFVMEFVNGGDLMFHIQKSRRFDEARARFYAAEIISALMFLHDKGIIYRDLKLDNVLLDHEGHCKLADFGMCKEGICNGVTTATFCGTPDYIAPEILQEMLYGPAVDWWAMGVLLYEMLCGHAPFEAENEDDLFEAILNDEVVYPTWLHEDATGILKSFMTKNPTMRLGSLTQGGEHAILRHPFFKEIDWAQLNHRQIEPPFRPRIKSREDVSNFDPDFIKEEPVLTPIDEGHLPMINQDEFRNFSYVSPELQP
In short: as §1

EPHA4 = EPHA4 (Homo sapiens, UniProt P54764)
In short: as §1

inhibition at 1 µM (AAK1): 4%
inhibition at 1 µM (TGFBR1): 0%
inhibition at 1 µM [1]: 30%
inhibition at 1 µM (KIT(V559D,T670I)): 0%
inhibition at 1 µM (MERTK): 0%
inhibition at 1 µM (SRPK1): 0%
inhibition at 1 µM (CDKL3): 23%
inhibition at 1 µM (EPHB1): 0%
inhibition at 1 µM (ROCK2): 5%
inhibition at 1 µM (GSK3A): 0%
inhibition at 1 µM (FGFR3(G697C)): 0%
inhibition at 1 µM (PYK2): 0%
inhibition at 1 µM [2]: 18%
inhibition at 1 µM (STK35): 0%
inhibition at 1 µM (ACVR2B): 0%
inhibition at 1 µM [3]: 0%
inhibition at 1 µM (CSNK2A2): 14%
inhibition at 1 µM [4]: 15%
inhibition at 1 µM (PIK3CA(I800L)): 38%
inhibition at 1 µM (CAMK2D): 0%
inhibition at 1 µM (CAMK1): 0%
inhibition at 1 µM (RIPK4): 8%
inhibition at 1 µM (PRKCH): 0%
inhibition at 1 µM (EPHA4): 0%
SMILES: CNS(=O)(=O)c1ccc(N(C)C)c(Nc2nc(C)nc3cc(OC)c(OC)cc23)c1 [compound 15, 3-((6,7-dimethoxy-2-methylquinazolin-4-yl)amino)-4-(dimethylamino)-N-methylbenzenesulfonamide]
